Experimental data taken from paper PMC2701352 (Biochemical pharmacology, 2008).
“Also recorded” adds a separate entry of the source.

Legend:
hMC4R/TM4 hMC1R = hMC4R/TM4 hMC1R (Homo sapiens, UniProt P32245+Q01726); assay: cAMP production, hMC4R/TM4hMC1R chimera
hMC4R/TM5 hMC1R = assay: cAMP production, hMC4R/TM5hMC1R chimera; details: Fig. 4B, 4D
hMC4R/TM2 hMC1R = hMC4R/TM2 hMC1R (Homo sapiens, UniProt P32245, A89S/G98V/I102A/M91L/S85C/S99L/V88L/V95G); assay: cAMP production, hMC4R/TM2hMC1R chimera; format: cell-based
hMC1R WT = hMC1R WT (Homo sapiens, UniProt Q01726); assay: cAMP production, hMC1R WT in HEK-293 cells; format: cell-based
hMC4R/TM6 hMC1R = hMC4R/TM6 hMC1R (Homo sapiens, UniProt P32245+Q01726); assay: cAMP production, hMC4R/TM6hMC1R chimera
hMC4R/TM3 hMC1R = hMC4R/TM3 hMC1R (Homo sapiens, UniProt P32245+Q01726); assay: cAMP production, hMC4R/TM3hMC1R chimera
hMC4R WT = hMC4R WT (Homo sapiens, UniProt P32245); assay: cAMP production, hMC4R WT in HEK-293 cells; format: cell-based
Sequence of hMC4R WT (P32245 whole entry): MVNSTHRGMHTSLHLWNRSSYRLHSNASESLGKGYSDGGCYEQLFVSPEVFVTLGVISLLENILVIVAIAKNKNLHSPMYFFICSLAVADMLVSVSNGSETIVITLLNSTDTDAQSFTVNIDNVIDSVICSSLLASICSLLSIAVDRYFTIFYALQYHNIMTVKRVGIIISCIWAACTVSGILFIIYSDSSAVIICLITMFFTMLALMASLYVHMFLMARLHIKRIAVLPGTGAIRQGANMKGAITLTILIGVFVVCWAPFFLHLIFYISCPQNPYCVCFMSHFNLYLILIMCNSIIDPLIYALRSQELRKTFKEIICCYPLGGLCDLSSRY

Sequence of hMC1R WT (Q01726 whole entry): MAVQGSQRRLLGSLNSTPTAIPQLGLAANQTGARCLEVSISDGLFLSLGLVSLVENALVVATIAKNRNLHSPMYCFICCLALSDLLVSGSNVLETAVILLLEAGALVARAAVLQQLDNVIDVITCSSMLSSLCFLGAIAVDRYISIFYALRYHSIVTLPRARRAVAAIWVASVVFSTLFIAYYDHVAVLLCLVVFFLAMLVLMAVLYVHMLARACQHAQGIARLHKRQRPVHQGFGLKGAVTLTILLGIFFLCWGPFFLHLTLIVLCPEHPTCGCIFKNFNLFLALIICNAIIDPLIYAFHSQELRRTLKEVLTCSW
Sequence of hMC4R/TM6 hMC1R (P32245 1-251 limits assumed, other chains not shown): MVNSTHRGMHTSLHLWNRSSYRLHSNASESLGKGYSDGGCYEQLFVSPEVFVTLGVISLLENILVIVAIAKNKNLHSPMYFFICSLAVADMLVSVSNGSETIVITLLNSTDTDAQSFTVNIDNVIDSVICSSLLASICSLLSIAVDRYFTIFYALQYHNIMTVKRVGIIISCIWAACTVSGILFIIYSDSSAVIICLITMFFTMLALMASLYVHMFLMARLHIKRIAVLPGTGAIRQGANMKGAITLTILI
Sequence of hMC4R/TM6 hMC1R (P32245 271-332 limits assumed, other chains not shown): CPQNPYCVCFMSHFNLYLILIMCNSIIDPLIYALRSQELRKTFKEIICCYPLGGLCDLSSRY
Sequence of hMC4R/TM4 hMC1R (P32245 1-172 limits assumed, other chains not shown): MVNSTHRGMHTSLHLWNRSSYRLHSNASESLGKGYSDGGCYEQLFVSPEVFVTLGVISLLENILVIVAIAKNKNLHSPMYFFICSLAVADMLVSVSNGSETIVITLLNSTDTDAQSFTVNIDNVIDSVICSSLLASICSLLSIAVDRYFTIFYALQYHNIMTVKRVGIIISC
Sequence of hMC4R/TM4 hMC1R (P32245 188-332 limits assumed, other chains not shown): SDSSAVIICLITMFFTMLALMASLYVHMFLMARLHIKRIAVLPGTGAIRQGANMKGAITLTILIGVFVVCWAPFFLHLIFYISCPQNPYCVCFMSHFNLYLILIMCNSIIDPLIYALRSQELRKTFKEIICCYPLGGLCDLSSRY
Sequence of hMC4R/TM2 hMC1R (P32245 whole entry S85C/V88L/A89S/M91L/V95G/G98V/S99L/I102A): as the sequence (P32245 whole entry) above, with S85C, V88L, A89S, M91L, V95G, G98V, S99L, I102A counted along it
Sequence of hMC4R/TM3 hMC1R (P32245 1-121 limits assumed): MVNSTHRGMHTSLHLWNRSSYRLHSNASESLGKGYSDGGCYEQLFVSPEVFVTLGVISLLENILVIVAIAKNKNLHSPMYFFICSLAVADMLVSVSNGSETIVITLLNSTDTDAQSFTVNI
Sequence of hMC4R/TM3 hMC1R (Q01726 117-137 limits assumed): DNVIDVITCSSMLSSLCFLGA
Sequence of hMC4R/TM3 hMC1R (P32245 143-332 limits assumed): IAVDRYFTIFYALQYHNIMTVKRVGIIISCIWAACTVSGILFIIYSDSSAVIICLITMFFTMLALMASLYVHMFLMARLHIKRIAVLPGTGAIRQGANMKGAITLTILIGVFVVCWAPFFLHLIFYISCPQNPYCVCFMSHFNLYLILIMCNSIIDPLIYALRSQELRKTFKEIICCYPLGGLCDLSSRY

## CCCC[C@H](NC(=O)[C@@H](NC(=O)[C@@H](N)Cc1ccc(O)cc1)C(C)C)C(=O)NCC(=O)N1CCC[C@H]1C(=O)N[C@H](Cc1ccccc1)C(=O)N[C@@H](CCCNC(=N)N)C(=O)N[C@@H](Cc1c[nH]c2ccccc12)C(=O)N[C@@H](CC(=O)O)C(=O)N[C@@H](CCCNC(=N)N)C(=O)N[C@@H](Cc1ccccc1)C(=O)NCC(N)=O [[DPhe^6]-γ-MSH, H-Tyr-Val-Nle-Gly-Pro-DPhe-Arg-Trp-Asp-Arg-Phe-Gly-NH2]
hMC4R/TM4 hMC1R
  EC50: 3.1 ± 0.3 nM
hMC4R/TM4 hMC1R; Figs. 3 and 4
  cAMP potency (in words): did not significantly alter [DPhe^6]-γ-MSH potency
hMC4R/TM5 hMC1R
  cAMP potency (in words): did not significantly alter [DPhe^6]-γ-MSH potency
hMC4R/TM2 hMC1R
  EC50: 2.9 ± 0.3 nM
hMC4R/TM2 hMC1R; Fig. 3B, 3D
  cAMP potency (in words): did not significantly alter [DPhe^6]-γ-MSH potency
hMC1R WT
  EC50: 2.3 ± 0.5 nM
hMC1R WT; Fig. 2B, 2D
  cAMP production, potency and agonism (in words): dose-dependently increased cAMP generation; also recorded: non selective agonist for the MC1R and MC4R
hMC4R/TM6 hMC1R
  EC50: 3.2 ± 0.3 nM
hMC4R/TM6 hMC1R; Fig. 4B, 4D
  cAMP potency (in words): did not significantly alter [DPhe^6]-γ-MSH potency
hMC4R/TM3 hMC1R
  EC50: 3.3 ± 0.5 nM
hMC4R/TM3 hMC1R; Fig. 3B, 3D
  cAMP potency (in words): did not significantly alter [DPhe^6]-γ-MSH potency
hMC4R WT
  EC50: 35 nM
hMC4R WT; Fig. 2B, 2D
  cAMP production, potency and agonism (in words): dose-dependently increased cAMP generation; also recorded: non selective agonist for the MC1R and MC4R
